Legend:
[1] = test system: rabbit serum obtained by immunizing a rabbit with the SARS-CoV strain Frankfurt 1; format: binding; parameters: Binding of a rabbit serum to linear peptides / Binding of a rabbit serum to looped peptides / Rabbit serum linear peptides / Rabbit serum looped peptides / Binding of a rabbit serum to linear peptides of protein N of SARS-CoV Urbani (Rabbit serum linear peptides) / Binding of a rabbit serum to looped/cyclic peptides of protein N of SARS-CoV Urbani (Rabbit serum looped peptides): unit not given here
[2] = test system: antibodies in sera from SARS patients (sera 1a, 1b, 2, 6, 37, 62, London, SARS-yellow, SARS-green); format: binding, human; parameters: Binding of serum 6 to linear peptides of protein X1 of SARS-CoV Urbani / Binding of serum 37 to linear peptides of protein X1 of SARS-CoV Urbani / Binding of serum 6 to looped/cyclic peptide (PEPSCAN-ELISA) / Binding of serum 37 to looped/cyclic peptide (PEPSCAN-ELISA) / Binding of serum 37 to looped/cyclic peptides of protein X1 of SARS-CoV Urbani / Binding of serum 6 to linear peptides of protein X2 / Binding of serum 37 to linear peptides of protein X2 / Binding of serum 37 to looped/cyclic peptides of protein X2 of SARS-CoV Urbani / Binding of serum 6 to linear peptides of protein M of SARS-CoV Urbani / Binding of serum 37 to linear peptides of protein M of SARS-CoV Urbani / Binding of serum 6 to looped/cyclic peptides of protein M of SARS-CoV Urbani / Binding of serum 37 to looped/cyclic peptides of protein M of SARS-CoV Urbani / Binding of serum 6 to linear peptides of protein X3 of SARS-CoV Urbani / Binding of serum 37 to linear peptides of protein X3 of SARS-CoV Urbani / Binding of serum 37 to looped/cyclic peptides of protein X3 of SARS-CoV Urbani / Binding of serum 6 to linear peptides of protein X4 of SARS-CoV Urbani / Binding of serum 37 to linear peptides of protein X4 of SARS-CoV Urbani / Binding of serum 37 to looped/cyclic peptides of protein X4 of SARS-CoV Urbani / Binding of serum 6 to linear peptides of protein X5 of SARS-CoV Urbani / Binding of serum 37 to linear peptides of protein X5 of SARS-CoV Urbani / Binding of serum 37 to looped/cyclic peptides of protein X5 of SARS-CoV Urbani / Binding of serum 6 to linear peptides of protein N of SARS-CoV Urbani / Binding of serum 37 to linear peptides of protein N of SARS-CoV Urbani / Binding of serum 6 to linear peptide (PEPSCAN-ELISA) / Binding of serum 1a to looped/cyclic peptides of protein N of SARS-CoV Urbani / Binding of serum 1b to looped/cyclic peptides of protein N of SARS-CoV Urbani / Binding of serum 2 to looped/cyclic peptides of protein N of SARS-CoV Urbani / Binding of serum 6 to looped/cyclic peptides of protein N of SARS-CoV Urbani / Binding of serum 37 to looped/cyclic peptides of protein N of SARS-CoV Urbani / Binding of serum 62 to looped/cyclic peptides of protein N of SARS-CoV Urbani / Binding of serum London to looped/cyclic peptides of protein N of SARS-CoV Urbani / Binding of serum SARS-green to looped/cyclic peptides of protein N of SARS-CoV Urbani: unit not given here
[3] = test system: control sera (pooled serum of ten healthy LUMC hospital workers; commercial negative donor pooled serum from the Dutch bloodbank); format: binding, human; parameters: Binding of Control serum LUMC to linear peptides / Binding of Control serum Blood-bank to linear peptides / Binding of Control serum LUMC to looped peptides / Binding of Control Serum Blood-Bank to Looped peptides / Binding of Control serum LUMC to linear peptides of the protein M of SARS-CoV Urbani / Binding of Control serum Blood-bank to linear peptides of the protein M of SARS-CoV Urbani / Binding of Control serum LUMC to looped peptides of the protein M of SARS-CoV Urbani / Binding of Control Serum Blood-Bank to Looped peptides of the protein M of SARS-CoV Urbani: unit not given here

Question: How did the “Rabbit serum linear peptides” value [1] turn out when ASFRLFARTRSMWSF was run?
Answer: 0.3

Question: And the “Rabbit serum looped peptides” value [1]?
Answer: 0.2

Question: And the “Binding of serum 1a to linear peptides of protein M of SARS-CoV Urbani” value [2]?
Answer: 0.7

Question: What about the “Binding of serum 1a to looped/cyclic peptides of protein M of SARS-CoV Urbani” value [2] of the same sequence?
Answer: 0.6

Question: What about the “Binding of serum 1b to linear peptides of protein M of SARS-CoV Urbani” value [2] of the same sequence?
Answer: 0.6

Question: What about the “Binding of serum 1b to looped/cyclic peptides of protein M of SARS-CoV Urbani” value [2] of the same sequence?
Answer: 0.5

Question: What about the “Binding of serum 2 to linear peptides of protein M of SARS-CoV Urbani” value [2] of the same sequence?
Answer: 0.5

Question: What about the “Binding of serum 2 to looped/cyclic peptides of protein M of SARS-CoV Urbani” value [2] of the same sequence?
Answer: 0.5

Question: What about the “Binding of serum 6 to linear peptides of protein M of SARS-CoV Urbani” value [2] of the same sequence?
Answer: 0.7

Question: And the “Binding of serum 6 to looped/cyclic peptides of protein M of SARS-CoV Urbani” value [2]?
Answer: 0.9

Question: What about the “Binding of serum 37 to linear peptides of protein M of SARS-CoV Urbani” value [2] of the same sequence?
Answer: 0.4

Question: And the “Binding of serum 37 to looped/cyclic peptides of protein M of SARS-CoV Urbani” value [2]?
Answer: 0.5

Question: What about the “Binding of serum 62 to linear peptides of protein M of SARS-CoV Urbani” value [2] of the same sequence?
Answer: 0.4

Question: And the “Binding of serum 62 to looped/cyclic peptides of protein M of SARS-CoV Urbani” value [2]?
Answer: 0.5

Question: And the “Binding of serum London to linear peptides of protein M of SARS-CoV Urbani” value [2]?
Answer: 0.3

Question: What about the “Binding of serum London to looped/cyclic peptides of protein M of SARS-CoV Urbani” value [2] of the same sequence?
Answer: 0.2

Question: And the “Binding of serum SARS-green to linear peptides of protein M of SARS-CoV Urbani” value [2]?
Answer: 0.4

Question: And the “Binding of serum SARS-green to looped/cyclic peptides of protein M of SARS-CoV Urbani” value [2]?
Answer: 0.2

Question: And the “Binding of serum SARS-yellow to linear peptides of protein M of SARS-CoV Urbani” value [2]?
Answer: 0.2

Question: And the “Binding of serum SARS-yellow to looped/cyclic peptides of protein M of SARS-CoV Urbani” value [2]?
Answer: 0.6

Question: What about the “Binding of Control Serum Blood-Bank to Looped peptides of the protein M of SARS-CoV Urbani” value [3] of the same sequence?
Answer: 0.7

Question: What about the “Binding of Control serum Blood-bank to linear peptides of the protein M of SARS-CoV Urbani” value [3] of the same sequence?
Answer: 0.7

Question: What about the “Binding of Control serum LUMC to linear peptides of the protein M of SARS-CoV Urbani” value [3] of the same sequence?
Answer: 0.6

Question: What about the “Binding of Control serum LUMC to looped peptides of the protein M of SARS-CoV Urbani” value [3] of the same sequence?
Answer: 0.7

Question: Which results are given for ASLPFGWLVIGVAFL?
Answer: Binding of a rabbit serum to linear peptides [1]: 1.4; Binding of a rabbit serum to looped peptides [1]: 0.3; Binding of serum 1a to linear peptides of protein X1 of SARS-CoV Urbani [2]: 0.7; Binding of serum 1a to looped/cyclic peptide (PEPSCAN-ELISA) [2]: 0.5; Binding of serum 1b to linear peptides of protein X1 of SARS-CoV Urbani [2]: 0.5; Binding of serum 1b to looped/cyclic peptide (PEPSCAN-ELISA) [2]: 0.3; Binding of serum 2 to linear peptides of protein X1 of SARS-CoV Urbani [2]: 0.6; Binding of serum 2 to looped/cyclic peptide (PEPSCAN-ELISA) [2]: 0.4; Binding of serum 6 to linear peptides of protein X1 of SARS-CoV Urbani [2]: 0.5; Binding of serum 6 to looped/cyclic peptide (PEPSCAN-ELISA) [2]: 0.2; Binding of serum 37 to linear peptides of protein X1 of SARS-CoV Urbani [2]: 0.6; Binding of serum 37 to looped/cyclic peptide (PEPSCAN-ELISA) [2]: 0.3; Binding of serum 62 to linear peptides of protein X1 of SARS-CoV Urbani [2]: 0.6; Binding of serum 62 to looped/cyclic peptide (PEPSCAN-ELISA) [2]: 0.4; Binding of serum London to linear peptides of protein X1 of SARS-CoV Urbani [2]: 0.3; Binding of serum London to looped/cyclic peptide (PEPSCAN-ELISA) [2]: 0.2; Binding of serum SARS-green to linear peptides of protein X1 of SARS-CoV Urbani [2]: 0.2; Binding of serum SARS-green to looped/cyclic peptide (PEPSCAN-ELISA) [2]: 0.2; Binding of serum SARS-yellow to linear peptides of protein X1 of SARS-CoV Urbani [2]: 0.4; Binding of serum SARS-yellow to looped/cyclic peptide (PEPSCAN-ELISA) [2]: 0.3; Binding of Control Serum Blood-Bank to Looped peptides [3]: 0.4; Binding of Control serum Blood-bank to linear peptides [3]: 0.6; Binding of Control serum LUMC to linear peptides [3]: 0.6; Binding of Control serum LUMC to looped peptides [3]: 0.6
